Measurements as given in ChEMBL document CHEMBL1201862, “PubChem BioAssay data set” (2004).
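Method: 48-hour compound exposure of cells in 96-well plates, five concentrations, linear interpolation of endpoints. GI50 is the concentration that inhibits growth by half.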 Calls of active or inactive are those of the source. Cut-off read from the data, not from the text of the source: active = GI50 up to about 1.1 µM and inactive = higher.

Assays:
Experiment in all cases: NCI tumour cell line growth inhibition, 48 h
HCT-15 = tested on: HCT-15
MCF7 = tested on: MCF7
NCI-H226 = tested on: NCI-H226
Hs-578T = tested on: Hs-578T
ACHN = tested on: ACHN
SW-620 = tested on: SW-620
MOLT-4 = tested on: MOLT-4
HOP-62 = tested on: HOP-62
NCI-H460 = tested on: NCI-H460
M14 = tested on: M14
Malme-3M = tested on: Malme-3M
COLO 205 = tested on: COLO 205
U-251 = tested on: U-251
NCI/ADR-RES = tested on: NCI/ADR-RES
MDA-N = tested on: MDA-N
PC-3 = tested on: PC-3
SF-539 = tested on: SF-539
UACC-257 = tested on: UACC-257
SK-OV-3 = tested on: SK-OV-3
OVCAR-4 = tested on: OVCAR-4
DU-145 = tested on: DU-145
SK-MEL-5 = tested on: SK-MEL-5
MDA-MB-435 = tested on: MDA-MB-435
SNB-75 = tested on: SNB-75
LOX IMVI = tested on: LOX IMVI
OVCAR-8 = tested on: OVCAR-8
RXF 393 = tested on: RXF 393
HCC 2998 = tested on: HCC 2998
HCT-116 = tested on: HCT-116
MDA-MB-231 = tested on: MDA-MB-231
IGROV-1 = tested on: IGROV-1
SK-MEL-28 = tested on: SK-MEL-28
786-0 = tested on: 786-0
KM12 = tested on: KM12
SF-295 = tested on: SF-295
A498 = tested on: A498
SK-MEL-2 = tested on: SK-MEL-2
CCRF-CEM = tested on: CCRF-CEM
OVCAR-3 = tested on: OVCAR-3
HOP-92 = tested on: HOP-92
CAKI-1 = tested on: CAKI-1
SF-268 = tested on: SF-268
OVCAR-5 = tested on: OVCAR-5
UACC-62 = tested on: UACC-62
T47D = tested on: T47D
SNB-19 = tested on: SNB-19
NCI-H522 = tested on: NCI-H522
EKVX = tested on: EKVX
SN12C = tested on: SN12C
TK-10 = tested on: TK-10
UO-31 = tested on: UO-31
K562 = tested on: K562
A549 = tested on: A549
NCI-H23 = tested on: NCI-H23
HT-29 = tested on: HT-29
HL-60 = tested on: HL-60
SR = tested on: SR
RPMI-8226 = tested on: RPMI-8226

`COC(=O)C1C2CC3C1C3C2C(=O)OC` (stereo not drawn) was tested, and the GI50 (HCT-15) was greater than 100 µM, the GI50 (MCF7) was > 100 µM (inactive) and the GI50 (NCI-H226) was > 100 µM (inactive). The GI50 (Hs-578T) was > 100 µM (inactive), the GI50 (ACHN) was > 100 µM (inactive) and the GI50 (SW-620) was > 100 µM (inactive). The GI50 (MOLT-4) was > 100 µM (inactive), the GI50 (HOP-62) was > 100 µM (inactive) and the GI50 (NCI-H460) was > 100 µM (inactive). For the same compound, the GI50 (M14) was > 100 µM (inactive), the GI50 (Malme-3M) was > 100 µM (inactive) and the GI50 (COLO 205) was > 100 µM (inactive). The GI50 (U-251) was > 100 µM (inactive), the GI50 (NCI/ADR-RES) was > 100 µM (inactive) and the GI50 (MDA-N) was > 100 µM (inactive). The GI50 (PC-3) was > 100 µM (inactive), the GI50 (SF-539) was > 100 µM (inactive) and the GI50 (UACC-257) was > 100 µM (inactive). The GI50 (SK-OV-3) was > 100 µM (inactive), the GI50 (OVCAR-4) was > 100 µM (inactive) and the GI50 (DU-145) was > 100 µM (inactive). The GI50 (SK-MEL-5) was > 100 µM (inactive), the GI50 (MDA-MB-435) was > 100 µM (inactive) and the GI50 (SNB-75) was > 100 µM (inactive). The GI50 (LOX IMVI) was > 100 µM (inactive), the GI50 (OVCAR-8) was > 100 µM (inactive) and the GI50 (RXF 393) was > 100 µM (inactive). For the same compound, the GI50 (HCC 2998) was > 100 µM (inactive), the GI50 (HCT-116) was > 100 µM (inactive) and the GI50 (MDA-MB-231) was > 100 µM (inactive). The GI50 (IGROV-1) was > 100 µM (inactive), the GI50 (SK-MEL-28) was > 100 µM (inactive) and the GI50 (786-0) was > 100 µM (inactive). The GI50 (KM12) was > 100 µM (inactive), the GI50 (SF-295) was > 100 µM (inactive) and the GI50 (A498) was > 100 µM (inactive). The GI50 (SK-MEL-2) was > 100 µM (inactive), the GI50 (CCRF-CEM) was > 100 µM (inactive) and the GI50 (OVCAR-3) was > 100 µM (inactive). For the same compound, the GI50 (HOP-92) was > 100 µM (inactive), the GI50 (CAKI-1) was > 100 µM (inactive) and the GI50 (SF-268) was > 100 µM (inactive). For the same compound, the GI50 (OVCAR-5) was > 100 µM (inactive), the GI50 (UACC-62) was > 100 µM (inactive) and the GI50 (T47D) was > 100 µM (inactive). The GI50 (SNB-19) was > 100 µM (inactive), the GI50 (NCI-H522) was > 100 µM (inactive) and the GI50 (EKVX) was > 100 µM (inactive). For the same compound, the GI50 (SN12C) was > 100 µM (inactive), the GI50 (TK-10) was > 100 µM (inactive) and the GI50 (UO-31) was > 100 µM (inactive). The GI50 (K562) was > 100 µM (inactive), the GI50 (A549) was > 100 µM (inactive) and the GI50 (NCI-H23) was > 100 µM (inactive). The GI50 (HT-29) was > 100 µM (inactive).
In the case of `Cc1ccc2c(O)cc(-c3ccc(Cl)s3)nc2n1`, the GI50 (HL-60) is reported as 0.203 µM (active), the GI50 (HCT-15) is reported as 0.405 µM and the GI50 (MCF7) is reported as 0.422 µM (active). For the same compound, the GI50 (NCI-H226) was 0.916 µM (active), the GI50 (Hs-578T) was 1.62 µM (inactive) and the GI50 (ACHN) was 8.79 µM (inactive). The GI50 (SW-620) was 0.407 µM (active), the GI50 (MOLT-4) was 0.488 µM (active) and the GI50 (HOP-62) was 2.31 µM (inactive). The GI50 (NCI-H460) was 0.564 µM (active), the GI50 (M14) was 0.516 µM (active) and the GI50 (Malme-3M) was 0.632 µM (active). For the same compound, the GI50 (COLO 205) was 6.18 µM (inactive), the GI50 (U-251) was 0.855 µM (active) and the GI50 (NCI/ADR-RES) was 0.409 µM (active). For the same compound, the GI50 (MDA-N) was 0.136 µM (active), the GI50 (PC-3) was 1.57 µM (inactive) and the GI50 (SF-539) was 0.538 µM (active). For the same compound, the GI50 (UACC-257) was 5.68 µM (inactive), the GI50 (SK-OV-3) was 1.83 µM (inactive) and the GI50 (OVCAR-4) was 16.3 µM (inactive). The GI50 (DU-145) was 3.57 µM (inactive), the GI50 (SK-MEL-5) was 0.391 µM (active) and the GI50 (MDA-MB-435) was 0.223 µM (active). For the same compound, the GI50 (SNB-75) was 1.4 µM (inactive), the GI50 (LOX IMVI) was 0.662 µM (active) and the GI50 (OVCAR-8) was 1.44 µM (inactive). The GI50 (RXF 393) was 2.76 µM (inactive), the GI50 (HCC 2998) was 1.34 µM (inactive) and the GI50 (HCT-116) was 0.552 µM (active). For the same compound, the GI50 (MDA-MB-231) was 5.89 µM (inactive), the GI50 (SR) was 0.15 µM (active) and the GI50 (RPMI-8226) was 0.308 µM (active). The GI50 (IGROV-1) was 0.564 µM (active), the GI50 (SK-MEL-28) was 0.665 µM (active) and the GI50 (786-0) was 1.21 µM (inactive). The GI50 (KM12) was 0.488 µM (active), the GI50 (SF-295) was 0.697 µM (active) and the GI50 (A498) was 4.7 µM (inactive). The GI50 (SK-MEL-2) was 5.18 µM (inactive), the GI50 (CCRF-CEM) was 0.471 µM (active) and the GI50 (OVCAR-3) was 1.1 µM (active). The GI50 (HOP-92) was > 58.1 µM (inactive), the GI50 (CAKI-1) was 3.24 µM (inactive) and the GI50 (SF-268) was 4.1 µM (inactive). For the same compound, the GI50 (OVCAR-5) was 2.75 µM (inactive), the GI50 (UACC-62) was 0.643 µM (active) and the GI50 (T47D) was 1.04 µM (active). For the same compound, the GI50 (SNB-19) was 1.43 µM (inactive), the GI50 (NCI-H522) was 0.502 µM (active) and the GI50 (EKVX) was 6.92 µM (inactive). For the same compound, the GI50 (SN12C) was 1.55 µM (inactive), the GI50 (TK-10) was 8.87 µM (inactive) and the GI50 (UO-31) was 0.245 µM (active). For the same compound, the GI50 (K562) was 0.728 µM (active), the GI50 (A549) was 1.14 µM (inactive) and the GI50 (NCI-H23) was 0.889 µM (active). For the same compound, the GI50 (HT-29) was 1.39 µM (inactive).
